Test results from the NIST ThermoML archive (doi:10.1016/j.fluid.2017.03.008).

Legend:
[1] = refractive index (Na D-line) (dimensionless); xn = mol fraction of the nth substance listed; conditions: 101.3 kPa, Liquid, Standard Abbe refractometry
[2] = xn = mol fraction of the nth substance listed; conditions: for surface tension liquid-gas: Ring tensiometer; for viscosity / mass density: 101.3 kPa, Liquid; for viscosity: Capillary tube (Ostwald / Ubbelohde) method; for mass density: Vibrating tube method

C[N+](C)(C)CCO.[Cl-] [choline chloride] + NCCO
Conditions	mass density, [2] [kg/m3]	refractive index, [1]	surface tension liquid-gas, [2] [mN/m]	viscosity, [2] [mPa·s]
298.15 K, x1 = 0.11	1062.8	1.47733	49.6	32.7
298.15 K, x1 = 0.13	1065	1.47875	49.2	37.7
298.15 K, x1 = 0.14	1069	1.48117	48.7	36.7
298.15 K, x1 = 0.16	1076.7	1.48388	48.2	48.5
308.15 K, x1 = 0.11	1055.2	1.47404	48.8	22.6
308.15 K, x1 = 0.13	1057.6	1.47541	48.5	25.5
308.15 K, x1 = 0.14	1061.7	1.47797	48	25
308.15 K, x1 = 0.16	1069.6	1.47998	47.6	28.8
318.15 K, x1 = 0.11	1047.8	1.47092	47.9	15
318.15 K, x1 = 0.13	1050.3	1.47217	47.8	13.8
318.15 K, x1 = 0.14	1054.4	1.47445	47.4	16.8
318.15 K, x1 = 0.16	1062.7	1.47623	46.9	20.1
328.15 K, x1 = 0.11	1040.4	1.46759	47.2	10.5
328.15 K, x1 = 0.13	1043	1.46908	47.1	10.1
328.15 K, x1 = 0.14	1047.2	1.47101	46.7	11.2
328.15 K, x1 = 0.16	1055.9	1.47257	46.2	13.5
338.15 K, x1 = 0.11	1033	1.46419	46.4	7.1
338.15 K, x1 = 0.13	1035.6	1.46539	46.4	7.9
338.15 K, x1 = 0.14	1039.9	1.46761	46	8.8
338.15 K, x1 = 0.16	1049	1.46842	45.6	9.8
348.15 K, x1 = 0.11	1025.6	1.46095	45.8	5.9
348.15 K, x1 = 0.13	1028.3	1.46171	45.8	6
348.15 K, x1 = 0.14	1032.6	1.46444	45.3	6.6
348.15 K, x1 = 0.16	1042	1.46421	45	7.5
358.15 K, x1 = 0.11	1018.1	1.45742	45	4.7
358.15 K, x1 = 0.13	1020.9	1.45833	44.9	5.2
358.15 K, x1 = 0.14	1025.3	1.46049	44.7	5.3
358.15 K, x1 = 0.16	1035	1.46031	44.4	5.9

C[P+](c1ccccc1)(c1ccccc1)c1ccccc1.[Br-] [methyltriphenylphosphonium bromide] + NCCO
Conditions	mass density, [2] [kg/m3]	refractive index, [1]	surface tension liquid-gas, [2] [mN/m]	viscosity, [2] [mPa·s]
298.15 K, x1 = 0.11	1092.9	1.50265	50.3	27.7
298.15 K, x1 = 0.13	1099.8	1.50587	50.2	28
298.15 K, x1 = 0.14	1107.4	1.51187	49.3	35.5
298.15 K, x1 = 0.16	1195.8	1.56644	48.9	128.9
308.15 K, x1 = 0.11	1085	1.49911	49.5	20
308.15 K, x1 = 0.13	1091.9	1.50221	49.3	20
308.15 K, x1 = 0.14	1100	1.50794	48.4	20.7
308.15 K, x1 = 0.16	1187.9	1.56247	48	84.9
318.15 K, x1 = 0.11	1077.1	1.49546	48.6	13.6
318.15 K, x1 = 0.13	1083.8	1.49935	48.2	13.1
318.15 K, x1 = 0.14	1092.2	1.50501	47.6	13.6
318.15 K, x1 = 0.16	1180.1	1.55846	47.2	37.9
328.15 K, x1 = 0.11	1068.9	1.49224	47.8	9.5
328.15 K, x1 = 0.13	1075.8	1.49519	47.2	9.1
328.15 K, x1 = 0.14	1084.2	1.50071	46.7	10
328.15 K, x1 = 0.16	1172.3	1.55518	46.4	25.4
338.15 K, x1 = 0.11	1060.8	1.48802	46.9	7
338.15 K, x1 = 0.13	1067.6	1.49063	46.3	6.9
338.15 K, x1 = 0.14	1076.1	1.49733	45.9	7.5
338.15 K, x1 = 0.16	1164.5	1.55159	45.6	15.6
348.15 K, x1 = 0.11	1052.7	1.48405	46.2	5.4
348.15 K, x1 = 0.13	1059.4	1.48631	45.3	5.4
348.15 K, x1 = 0.14	1068	1.49343	44.9	5.6
348.15 K, x1 = 0.16	1156.6	1.54699	44.8	10.7
358.15 K, x1 = 0.11	1044.7	1.47988	45.3	4.7
358.15 K, x1 = 0.13	1051.1	1.48215	44.4	4.8
358.15 K, x1 = 0.14	1059.8	1.49027	44.2	4.9
358.15 K, x1 = 0.16	1148.8	1.54286	44	9.1

CCCC[N+](CCCC)(CCCC)CCCC.[Br-] [tetrabutylammonium bromide] + NCCO
Conditions	mass density, [2] [kg/m3]	refractive index, [1]	surface tension liquid-gas, [2] [mN/m]	viscosity, [2] [mPa·s]
298.15 K, x1 = 0.14	1048.1	1.48383	36.1	22
298.15 K, x1 = 0.16	1056.6	1.4877	36	52.9
298.15 K, x1 = 0.2	1060.9	1.4881	35.8	80.2
298.15 K, x1 = 0.25	1061.6	1.49229	35.7	106.8
308.15 K, x1 = 0.14	1038.7	1.48033	35.7	15.5
308.15 K, x1 = 0.16	1048	1.48423	35.6	31
308.15 K, x1 = 0.2	1053.6	1.48464	35.4	54.7
308.15 K, x1 = 0.25	1054.5	1.48876	35.3	77
318.15 K, x1 = 0.14	1028.9	1.47704	35.4	12
318.15 K, x1 = 0.16	1041.5	1.48115	35.2	21.1
318.15 K, x1 = 0.2	1046.4	1.48169	35	38.2
318.15 K, x1 = 0.25	1047.3	1.48547	34.8	53.57
328.15 K, x1 = 0.14	1018.5	1.47349	35.1	9
328.15 K, x1 = 0.16	1034.1	1.47778	34.9	14.4
328.15 K, x1 = 0.2	1039.2	1.47851	34.6	20.1
328.15 K, x1 = 0.25	1040.2	1.48242	34.5	35.29
338.15 K, x1 = 0.14	1010.2	1.46989	34.7	6.8
338.15 K, x1 = 0.16	1026.7	1.47385	34.6	9
338.15 K, x1 = 0.2	1032	1.47541	34.3	13.4
338.15 K, x1 = 0.25	1033.1	1.47966	34	18.6
348.15 K, x1 = 0.14	1001.1	1.46595	34.4	5.7
348.15 K, x1 = 0.16	1019.3	1.46989	34.2	7.5
348.15 K, x1 = 0.2	1024.7	1.47164	33.9	10.5
348.15 K, x1 = 0.25	1026.1	1.47651	33.6	13.8
358.15 K, x1 = 0.14	992.1	1.46234	34.1	5.2
358.15 K, x1 = 0.16	1012	1.46632	33.9	5.2
358.15 K, x1 = 0.2	1017.4	1.46897	33.5	8
358.15 K, x1 = 0.25	1019	1.47303	33.2	10.2
